From patent US20220117958A1, “COMPOSITIONS AND METHODS FOR INHIBITING ACSS2” (THE TRUSTEES OF THE UNIVERSITY OF PENNSYLVANIA, priority 2018, published 2022)
≈ marks a conversion by molar mass, not a printed value. Where “and” joins values, the source holds several entries; their conditions need not be identical. Identical values can stand only once. Like-named read-outs stand apart in the source and are kept apart here. Marks after values point to notes of the source that are not given here.

Tests used:
[1] = Microsomal stability assay (half-life), mouse; assay type: in vitro ADME; conditions: Mouse (CD1) microsomes, read-out: Microsomal stability T1/2
Description: (§1) Table 20 provides results of in vitro and in vivo pharmacokinetics performed for each of the represented compounds.

[2] = In vivo PK, IV dose, Terminal - brain (brain availability); set-up: species or system Rat (SD); conditions: for Brain concentration, mean / Brain concentration, individual animal: IV 1 mg/kg
Experimental: Table 3 and FIG. 5 depict the brain availability of ADG I-204, ADG I-205, ADG I-206, and ADG I-207 after IV administration of 1 mg/kg dose.

H3K9ac = assay: Western blot, differentiated CAD cell lysates, H3K9ac levels; assay type: cell-based; conditions: differentiated CAD cells, DMSO = 100.00%
Description: as §1

[3] = Protein binding via Rapid Equilibrium Dialysis - plasma; assay type: in vitro ADME; conditions: Rat (SD) plasma, 2 μM
Description: as §1

[4] = In vivo PK, oral gavage, plasma; set-up: species or system Rat (SD)
Description: as §1
(§2) Tables 4 and 5 depict the summary of rat plasma sample concentrations after administration of ADG I-204. FIG. 6 provides a summary of rat plasma and brain concentrations.

[5] = Turbidity-based aqueous solubility; assay type: physicochemical; conditions: aqueous solution (composition not given), kinetic from dmso stock, read-out: highest soluble concentration
Description: as §1

[6] = In vivo PK, IV dose, plasma; set-up: species or system Rat (SD); conditions: for Plasma concentration, mean / Plasma concentration, individual animal: IV 1 mg/kg
Description: as §1, §2

[7] = In vivo PK, oral gavage, plasma; set-up: species or system Rat (SD); conditions: Rat, PO 5 mg/kg, BQL limit 1.00 ng/mL, listed as ADG I-206, 5 mg/kg
[8] = Microsomal stability assay (half-life), human; assay type: in vitro ADME; conditions: Human microsomes, read-out: Microsomal stability T1/2
Description: as §1

[9] = Microsomal stability assay (half-life), rat; assay type: in vitro ADME; conditions: Rat (SD) microsomes, read-out: Microsomal stability T1/2
Description: as §1

CNC(=O)Nc1ccc2nc(-c3cccs3)c(-c3cccs3)nc2c1 [ADG-206, 1-(2,3-di(thiophen-2-yl)quinoxalin-6-yl)-3-methylurea]
half-life at 2 μM [1]: 4.39 min | Brain concentration, mean ([2]; Rat (SD), 1 hr, listed as ADG I-206, 1 mg/kg): 67 ng/g | Brain concentration, mean ([2]; Rat (SD), 4 hr, BQL limit 10.0 ng/g (204, 206), 20.0 ng/g (205, 207)): BQL | Brain concentration, mean ([2]; Rat (SD), 8 hr, BQL limit 10.0 ng/g (204, 206), 20.0 ng/g (205, 207)): BQL | Brain concentration, mean ([2]; Rat (SD), 24 hr, BQL limit 10.0 ng/g (204, 206), 20.0 ng/g (205, 207)): BQL | Brain concentration, individual animal ([2]; Rat, 0.0830 hr, third animal received only 70% of the test article, listed as ADG I-206, 1 mg/kg): 1080 ng/g and 1050 ng/g and 455*** ng/g | Brain concentration, individual animal ([2]; Rat, 1.00 hr, listed as ADG I-206, 1 mg/kg): 57.6 ng/g and 74.3 ng/g | Brain concentration, individual animal ([2]; Rat, 4.00 hr, BQL limit 10.0 ng/g (204, 206), 20.0 ng/g (205, 207)): BQL | Brain concentration, individual animal ([2]; Rat, 8.00 hr, BQL limit 10.0 ng/g (204, 206), 20.0 ng/g (205, 207)): BQL | Brain concentration, individual animal ([2]; Rat, 24.0 hr, BQL limit 10.0 ng/g (204, 206), 20.0 ng/g (205, 207)): BQL | concentration at 0.083 h ([2]; SD, rat, brain, iv, 1 mg/kg, Rat (SD), 0.083 hr): 862 ng/g | concentration at 1 h ([2]; SD, rat, brain, iv, 1 mg/kg, Rat (SD), 1 hr, read-out: Brain concentration, mean): 66.9 ng/g | concentration at 1 h ([2]; SD, rat, brain, iv, 1 mg/kg, Rat, 1.00 hr, read-out: Brain concentration, individual animal): 68.8 ng/g | H3K9ac levels normalized to H3 and DMSO control (H3K9ac; 1 uM): 46.94% | H3K9ac levels normalized to H3 and DMSO control (H3K9ac; 5 uM): 35.39% | H3K9ac levels normalized to H3 and DMSO control (H3K9ac; 10 uM): 19.49% | H3K9ac levels normalized to H3 and DMSO control (H3K9ac; 20 uM): 8.45% | H3K9ac levels normalized to H3 and DMSO control (H3K9ac; 50 uM): 5.83% | H3K9ac levels normalized to H3 and DMSO control (H3K9ac; 100 uM): 1.24% | Protein binding, plasma: % Protein free [3]: 0.6565 % Protein free | Plasma concentration, mean ([4]; Rat (SD), PO 5 mg/kg, 24 hr, BQL = below quantitation limit (1.00 ng/mL)): BQL | Plasma concentration, individual animal ([4]; Rat, PO 5 mg/kg, 24.0 hr, BQL limit 1.00 ng/mL): BQL | concentration at 0.25 h ([4]; SD, rat, plasma, po, 5 mg/kg, Rat (SD), 0.25 hr, BQL = below quantitation limit (1.00 ng/mL), read-out: Plasma concentration, mean): 1.47 ng/mL | concentration at 0.5 h ([4]; SD, rat, plasma, po, 5 mg/kg, Rat (SD), 0.5 hr, BQL = below quantitation limit (1.00 ng/mL), read-out: Plasma concentration, mean): 2.32 ng/mL | concentration at 1 h ([4]; SD, rat, plasma, po, 5 mg/kg, Rat (SD), 1 hr, BQL = below quantitation limit (1.00 ng/mL), read-out: Plasma concentration, mean): 7.14 ng/mL | concentration at 4 h ([4]; SD, rat, plasma, po, 5 mg/kg, Rat (SD), 4 hr, BQL = below quantitation limit (1.00 ng/mL)): 12.8 ng/mL | concentration at 8 h ([4]; SD, rat, plasma, po, 5 mg/kg, Rat (SD), 8 hr, BQL = below quantitation limit (1.00 ng/mL), read-out: Plasma concentration, mean): 12.2 ng/mL | concentration at 0.25 h ([4]; SD, rat, plasma, po, 5 mg/kg, Rat, 0.250 hr, BQL limit 1.00 ng/mL, read-out: Plasma concentration, individual animal): 1.47 ng/mL | concentration at 0.5 h ([4]; SD, rat, plasma, po, 5 mg/kg, Rat, 0.500 hr, BQL limit 1.00 ng/mL, read-out: Plasma concentration, individual animal): 2.86 ng/mL | concentration at 1 h ([4]; SD, rat, plasma, po, 5 mg/kg, Rat, 1.00 hr, BQL limit 1.00 ng/mL, read-out: Plasma concentration, individual animal): 5.47 ng/mL | concentration at 8 h ([4]; SD, rat, plasma, po, 5 mg/kg, Rat, 8.00 hr, BQL limit 1.00 ng/mL, read-out: Plasma concentration, individual animal): 15.6 ng/mL | solubility [5]: 5 µM (≈ 1.83 µg/mL) | Plasma concentration, mean ([6]; Rat (SD), 8 hr, terminal, listed as ADG I-206, 1 mg/kg): 5 ng/mL | Plasma concentration, mean ([6]; Rat (SD), 24 hr, terminal, BQL limit 1.00 ng/mL (ADG I-205: 2.00 ng/mL)): BQL | Plasma concentration, individual animal ([6]; Rat, 0.0830 hr, terminal, third animal received only 70% of the test article, listed as ADG I-206, 1 mg/kg): 1500 ng/mL and 1160 ng/mL and 610*** ng/mL | Plasma concentration, individual animal ([6]; Rat, 0.500 hr, not terminal (animals 4, 5 and 6), listed as ADG I-206, 1 mg/kg): 7310** ng/mL and 527 ng/mL and 507 ng/mL | Plasma concentration, individual animal ([6]; Rat, 1.00 hr, terminal, listed as ADG I-206, 1 mg/kg): 177 ng/mL and 142 ng/mL | Plasma concentration, individual animal ([6]; Rat, 4.00 hr, terminal, BQL limit 1.00 ng/mL (ADG I-205: 2.00 ng/mL), listed as ADG I-206, 1 mg/kg): 4.19 ng/mL and 1.81 ng/mL | Plasma concentration, individual animal ([6]; Rat, 8.00 hr, terminal, BQL limit 1.00 ng/mL (ADG I-205: 2.00 ng/mL), listed as ADG I-206, 1 mg/kg): BQL and 1.44 ng/mL and 8.52 ng/mL | Plasma concentration, individual animal ([6]; Rat, 24.0 hr, terminal, BQL limit 1.00 ng/mL (ADG I-205: 2.00 ng/mL)): BQL | concentration at 0.083 h ([6]; SD, rat, plasma, iv, 1 mg/kg, Rat (SD), 0.083 hr, terminal, read-out: Plasma concentration, mean): 1090 ng/mL | concentration at 0.5 h ([6]; SD, rat, plasma, iv, 1 mg/kg, Rat (SD), 0.500 hr, not a terminal time point (animals 4, 5 and 6)): 2780 ng/mL | concentration at 1 h ([6]; SD, rat, plasma, iv, 1 mg/kg, Rat (SD), 1 hr, terminal, read-out: Plasma concentration, mean): 165 ng/mL | concentration at 4 h ([6]; SD, rat, plasma, iv, 1 mg/kg, Rat (SD), 4 hr, terminal, read-out: Plasma concentration, mean): 3 ng/mL | concentration at 8 h ([6]; SD, rat, plasma, iv, 1 mg/kg, Rat (SD), 8 hr, terminal, read-out: Plasma concentration, mean): 4.98 ng/mL | concentration at 1 h ([6]; SD, rat, plasma, iv, 1 mg/kg, Rat, 1.00 hr, terminal, read-out: Plasma concentration, individual animal): 176 ng/mL | Plasma concentration, individual animal ([7]; 0.250 hr): BQL | Plasma concentration, individual animal ([7]; 0.500 hr): 2.16 ng/mL and 1.93 ng/mL | Plasma concentration, individual animal ([7]; 1.00 hr): 9.00 ng/mL and 6.94 ng/mL | Plasma concentration, individual animal ([7]; 4.00 hr): 17.2 ng/mL and 8.32 ng/mL | Plasma concentration, individual animal ([7]; 8.00 hr): 8.89 ng/mL | half-life at 2 μM [8]: 43.3 min | half-life at 2 μM [9]: 6.36 min
